Data from US6693114B2, “4-oxo-1,4-dihydro[1,8]naphthyridine-3-carboxamides as antiviral agents” (Pharmacia & Upjohn Company, priority 2000, dated 2004).

Tests used:
HCMV polymerase = target: T1, HCMV polymerase (Human cytomegalovirus, UniProt P08546); test: HCMV polymerase assay (scintillation proximity assay, modified version); assay type: biochemical; conditions: for IC50: modified HCMV polymerase SPA assay, compounds diluted in 100% DMSO, 4.5 mM DTT
T1 construct: made in house; host or cells: recombinant baculovirus-infected SF-9 cells
T1 sequence (P08546 whole entry): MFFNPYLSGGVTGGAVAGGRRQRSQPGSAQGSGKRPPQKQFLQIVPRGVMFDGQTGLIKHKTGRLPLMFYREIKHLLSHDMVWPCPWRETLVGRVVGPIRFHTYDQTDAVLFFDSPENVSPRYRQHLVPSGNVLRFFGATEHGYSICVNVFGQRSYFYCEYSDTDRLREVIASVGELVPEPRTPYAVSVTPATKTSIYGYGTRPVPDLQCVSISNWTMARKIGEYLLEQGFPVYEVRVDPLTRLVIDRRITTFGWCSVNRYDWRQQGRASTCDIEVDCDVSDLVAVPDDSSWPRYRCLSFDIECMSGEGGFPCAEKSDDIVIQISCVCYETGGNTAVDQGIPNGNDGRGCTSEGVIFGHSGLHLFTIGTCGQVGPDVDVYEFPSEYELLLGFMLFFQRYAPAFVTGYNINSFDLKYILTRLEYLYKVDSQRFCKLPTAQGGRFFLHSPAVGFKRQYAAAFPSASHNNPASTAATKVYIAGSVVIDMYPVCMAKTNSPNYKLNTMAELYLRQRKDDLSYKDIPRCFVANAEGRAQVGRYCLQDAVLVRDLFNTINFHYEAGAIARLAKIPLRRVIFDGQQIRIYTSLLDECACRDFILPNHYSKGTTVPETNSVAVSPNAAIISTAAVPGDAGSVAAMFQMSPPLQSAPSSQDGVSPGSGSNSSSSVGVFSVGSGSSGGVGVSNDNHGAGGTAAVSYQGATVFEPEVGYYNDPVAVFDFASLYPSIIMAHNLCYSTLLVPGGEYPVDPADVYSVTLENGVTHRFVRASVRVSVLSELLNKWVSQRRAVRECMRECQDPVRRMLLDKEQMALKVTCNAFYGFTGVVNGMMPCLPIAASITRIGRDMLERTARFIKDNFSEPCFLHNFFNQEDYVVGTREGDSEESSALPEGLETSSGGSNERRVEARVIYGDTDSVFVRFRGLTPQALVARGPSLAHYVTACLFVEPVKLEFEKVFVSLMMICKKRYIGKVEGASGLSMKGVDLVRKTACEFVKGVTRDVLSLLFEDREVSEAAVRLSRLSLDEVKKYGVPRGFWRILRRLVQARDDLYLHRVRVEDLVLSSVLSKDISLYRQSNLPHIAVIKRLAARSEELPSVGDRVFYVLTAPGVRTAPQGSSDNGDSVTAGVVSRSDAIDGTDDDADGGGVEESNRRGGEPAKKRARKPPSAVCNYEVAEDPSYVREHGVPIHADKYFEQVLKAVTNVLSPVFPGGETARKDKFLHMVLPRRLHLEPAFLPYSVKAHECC
Experimental: The HCMV polymerase assay is performed using a scintillation proximity assay (SPA) as described in several references, such as N. D. Cook, et al., Pharmaceutical Manufacturing International, pages 49-53 (1992); K. Takeuchi, Laboratory Practice, September issue (1992); U.S. Pat. No. 4,568,649 (1986); which are incorporated by reference herein. Reactions are performed in 96-well plates. The assay is conducted in 100 μl volume with 5.4 mM HEPES (pH 7.5), 11.7 mM KCl, 4.5 mM MgCl2, 0.36 mg/ml BSA, and 90 nM ^3H-dTTP. Assays are run with and without CHAPS, (3-[(3-cholamidopropyl)-dimethylammonio]-1-propane-sulfonate) at a final concentration of 2 mM. HCMV polymerase is diluted in enzyme dilution buffer containing 50% glycerol, 250 mM NaCl, 10 mM HEPES (pH 7.5), 100 μg/ml BSA, and 0.01% sodium azide. The HCMV polymerase, which is expressed in recombinant baculovirus-infected SF-9 cells and purified according to literature procedures, is added at 10% (or 10 μl) of the final reaction volume, i.e., 100 μl. Compounds are diluted in 50% DMSO and 10 μl are added to each well. Control wells contain an equivalent concentration of DMSO. Unless noted otherwise, reactions are initiated via the addition of 6 nM biotinylated poly(dA)-oligo(dT) template/primer to reaction mixtures containing the enzyme, substrate, and compounds of interest. Plates are incubated in a 25° C. or 37° C. H2O bath and terminated via the addition of 40 μl/reaction of 0.5 M EDTA (pH 8) per well. Reactions are terminated within the time-frame during which substrate incorporation is linear and varied depending upon the enzyme and conditions used, i.e., 30 min. for HCMV polymerase. Ten μl of streptavidin-SPA beads (20 mg/ml in PBS/10% glycerol) are added following termination of the reaction. Plates are incubated 10 min. at 37° C., then equilibrated to room temperature, and counted on a Packard Topcount. Linear regressions are performed and IC50's are calculated using computer software.
A modified version of the above HCMV polymerase assay is performed as described above, but with the following changes: Compounds are diluted in 100% DMSO until final dilution into assay buffer. In the previous assay, compounds are diluted in 50% DMSO. 4.5 mM dithiotherotol (DTT) is added to the polymerase buffer. […] All results are listed as Polymerase IC50 (μM) values. In Table 1, the term “nd” refers to activity data not determined.

HSV polymerase = HSV polymerase (Human herpesvirus 1, UniProt P04293); test: HSV polymerase assay (Table 1, Polymerase IC50); assay type: biochemical; conditions: modified polymerase SPA assay
Sequence of HSV polymerase (P04293 whole entry): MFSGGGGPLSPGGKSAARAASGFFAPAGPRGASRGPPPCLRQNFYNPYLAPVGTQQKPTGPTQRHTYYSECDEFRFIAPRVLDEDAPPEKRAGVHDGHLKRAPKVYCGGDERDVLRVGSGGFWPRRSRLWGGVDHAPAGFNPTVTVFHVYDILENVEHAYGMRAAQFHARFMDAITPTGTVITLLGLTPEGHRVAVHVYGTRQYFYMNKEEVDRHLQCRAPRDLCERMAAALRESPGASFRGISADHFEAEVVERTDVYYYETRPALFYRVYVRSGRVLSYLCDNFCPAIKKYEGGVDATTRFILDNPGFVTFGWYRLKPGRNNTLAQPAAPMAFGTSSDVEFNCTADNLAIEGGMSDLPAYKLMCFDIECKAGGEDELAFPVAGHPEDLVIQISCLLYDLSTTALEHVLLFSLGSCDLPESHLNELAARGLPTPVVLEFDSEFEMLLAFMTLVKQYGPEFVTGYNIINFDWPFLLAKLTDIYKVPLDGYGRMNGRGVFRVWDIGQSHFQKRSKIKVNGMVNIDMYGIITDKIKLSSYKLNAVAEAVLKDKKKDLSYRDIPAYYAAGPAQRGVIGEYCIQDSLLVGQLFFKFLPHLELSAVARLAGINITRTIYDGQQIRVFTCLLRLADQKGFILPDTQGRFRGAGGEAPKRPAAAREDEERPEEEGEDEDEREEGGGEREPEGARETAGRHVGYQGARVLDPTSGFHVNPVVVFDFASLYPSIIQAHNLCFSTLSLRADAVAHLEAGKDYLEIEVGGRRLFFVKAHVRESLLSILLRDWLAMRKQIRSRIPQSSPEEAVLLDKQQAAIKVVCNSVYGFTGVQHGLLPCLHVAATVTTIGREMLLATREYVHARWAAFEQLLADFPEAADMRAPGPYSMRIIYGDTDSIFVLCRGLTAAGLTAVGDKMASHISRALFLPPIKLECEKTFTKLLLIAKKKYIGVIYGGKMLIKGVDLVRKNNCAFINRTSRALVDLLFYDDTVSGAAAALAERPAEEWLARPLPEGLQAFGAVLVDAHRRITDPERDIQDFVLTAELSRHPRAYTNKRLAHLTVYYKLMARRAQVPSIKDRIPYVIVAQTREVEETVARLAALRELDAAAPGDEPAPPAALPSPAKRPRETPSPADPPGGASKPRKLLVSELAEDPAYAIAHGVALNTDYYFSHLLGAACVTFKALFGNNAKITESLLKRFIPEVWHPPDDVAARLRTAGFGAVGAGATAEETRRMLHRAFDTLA

VZV polymerase = VZV polymerase (Varicella-zoster virus, UniProt P09252); test: VZV polymerase assay (Table 1, Polymerase IC50); assay type: biochemical; conditions: modified polymerase SPA assay
Sequence of VZV polymerase (P09252 whole entry): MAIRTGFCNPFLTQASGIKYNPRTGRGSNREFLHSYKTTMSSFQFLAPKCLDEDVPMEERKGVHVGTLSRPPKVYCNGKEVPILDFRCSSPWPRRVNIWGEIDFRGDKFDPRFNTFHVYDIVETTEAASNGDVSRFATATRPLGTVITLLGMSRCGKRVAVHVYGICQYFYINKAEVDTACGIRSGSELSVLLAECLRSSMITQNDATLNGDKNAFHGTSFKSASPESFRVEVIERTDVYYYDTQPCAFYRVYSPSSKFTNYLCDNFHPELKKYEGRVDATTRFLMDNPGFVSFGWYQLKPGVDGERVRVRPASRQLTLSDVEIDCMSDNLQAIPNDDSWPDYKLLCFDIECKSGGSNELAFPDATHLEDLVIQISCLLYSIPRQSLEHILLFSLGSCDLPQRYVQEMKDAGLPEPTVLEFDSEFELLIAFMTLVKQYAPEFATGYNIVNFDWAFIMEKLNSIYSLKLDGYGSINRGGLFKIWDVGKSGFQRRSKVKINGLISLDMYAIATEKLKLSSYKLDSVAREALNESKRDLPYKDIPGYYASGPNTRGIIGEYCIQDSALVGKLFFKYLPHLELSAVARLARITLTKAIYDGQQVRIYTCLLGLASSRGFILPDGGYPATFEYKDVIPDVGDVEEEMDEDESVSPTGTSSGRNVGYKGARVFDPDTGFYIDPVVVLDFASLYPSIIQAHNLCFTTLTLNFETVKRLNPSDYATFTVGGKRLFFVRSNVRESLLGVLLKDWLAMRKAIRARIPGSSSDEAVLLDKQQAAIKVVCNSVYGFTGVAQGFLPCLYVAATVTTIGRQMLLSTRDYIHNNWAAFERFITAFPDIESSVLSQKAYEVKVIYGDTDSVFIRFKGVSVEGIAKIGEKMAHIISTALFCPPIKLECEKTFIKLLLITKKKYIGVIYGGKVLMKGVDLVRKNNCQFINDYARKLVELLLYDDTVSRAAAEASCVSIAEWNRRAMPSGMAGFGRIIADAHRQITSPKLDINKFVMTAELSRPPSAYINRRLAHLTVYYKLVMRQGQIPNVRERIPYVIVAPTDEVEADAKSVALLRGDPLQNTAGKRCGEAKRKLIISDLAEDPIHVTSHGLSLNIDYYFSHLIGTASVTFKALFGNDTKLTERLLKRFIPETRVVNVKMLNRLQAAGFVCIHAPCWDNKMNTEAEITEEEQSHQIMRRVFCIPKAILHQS

SMILES	inhibition at 20 µM (HCMV polymerase; at 20 μM)	melting point	IC50 (HCMV polymerase)	IC50 (HSV polymerase)	IC50 (VZV polymerase)
CCOC(=O)c1cc2c(=O)c(C(=O)NCc3ccc(Cl)cc3)cn(C)c2nc1OC [Example 8, Ethyl 6-{[(4-chlorobenzyl)amino]carbonyl}-2-methoxy-8-methyl-5-oxo-5,8-dihydro[1,8]naphthyridine-3-carboxylate]	37%	–	–	–	–
Cc1nc2c(cc1Br)c(=O)c(C(=O)NCc1ccc(Cl)cc1)cn2C [Example 1, 6-bromo-N-(4-chlorobenzyl)-1,7-dimethyl-4-oxo-1,4-dihydro[1,8]naphthyridine-3-carboxamide]	–	266 to 268 °C	–	–	–
Cn1cc(C(=O)NCc2ccc(Cl)cc2)c(=O)c2ccc(=O)[nH]c21 [Example 5, N-(4-Chlorobenzyl)-1-methyl-4,7-dioxo-1,4,7,8-tetrahydro[1,8]naphthyridine-3-carboxamide]	–	–	17100 nM	–	–
COc1nc2c(cc1I)c(=O)c(C(=O)NCc1ccc(Cl)cc1)cn2C [Example 4, N-(4-Chlorobenzyl)-6-iodo-7-methoxy-1-methyl-4-oxo-1,4-dihydro[1,8]naphthyridine-3-carboxamide]	–	–	22300 nM	–	–

More lines, in order of falling IC50 (HCMV polymerase), values ahead:

inhibition at 20 µM (HCMV polymerase; at 20 μM)	melting point	IC50 (HCMV polymerase)	IC50 (HSV polymerase)	IC50 (VZV polymerase)	SMILES
–	176 to 177 °C	2700 nM	2400 nM	1400 nM	Cc1nc2c(cc1CCCO)c(=O)c(C(=O)NCc1ccc(Cl)cc1)cn2C [Example 3, N-(4-chlorobenzyl)-6-(3-hydroxypropyl)-1,7-dimethyl-4-oxo-1,4-dihydro[1,8]naphthyridine-3-carboxamide]
–	217 to 218 °C	1800 nM	1900 nM	1100 nM	Cc1nc2c(cc1C#CCO)c(=O)c(C(=O)NCc1ccc(Cl)cc1)cn2C [Example 2, N-(4-chlorobenzyl)-6-(3-hydroxy-1-propynyl)-1,7-dimethyl-4-oxo-1,4-dihydro[1,8]naphthyridine-3-carboxamide]
–	–	1170 nM	–	–	COc1nc2c(cc1C#CCO)c(=O)c(C(=O)NCc1ccc(Cl)cc1)cn2C [Example 6, N-(4-chlorobenzyl)-6-(3-hydroxy-1-propynyl)-7-methoxy-1-methyl-4-oxo-1,4-dihydro[1,8]naphthyridine-3-carboxamide]
–	–	460 nM	–	–	COc1nc2c(cc1CCCO)c(=O)c(C(=O)NCc1ccc(Cl)cc1)cn2C [Example 7, N-(4-Chlorobenzyl)-6-(3-hydroxypropyl)-7-methoxy-1-methyl-4-oxo-1,4-dihydro[1,8]naphthyridine-3-carboxamide]
